The values below come from patent publication US20240182445A1 (ONO PHARMACEUTICAL CO., LTD., priority 2019, published 2024).

Broadly, the IC50 is the point on the concentration scale where inhibition reaches its midpoint.

The target of assay [1] is T1, human TREK-1 (Homo sapiens, UniProt O95069).
T1 construct: expressed in transfected cells
T1 sequence (O95069 1-426): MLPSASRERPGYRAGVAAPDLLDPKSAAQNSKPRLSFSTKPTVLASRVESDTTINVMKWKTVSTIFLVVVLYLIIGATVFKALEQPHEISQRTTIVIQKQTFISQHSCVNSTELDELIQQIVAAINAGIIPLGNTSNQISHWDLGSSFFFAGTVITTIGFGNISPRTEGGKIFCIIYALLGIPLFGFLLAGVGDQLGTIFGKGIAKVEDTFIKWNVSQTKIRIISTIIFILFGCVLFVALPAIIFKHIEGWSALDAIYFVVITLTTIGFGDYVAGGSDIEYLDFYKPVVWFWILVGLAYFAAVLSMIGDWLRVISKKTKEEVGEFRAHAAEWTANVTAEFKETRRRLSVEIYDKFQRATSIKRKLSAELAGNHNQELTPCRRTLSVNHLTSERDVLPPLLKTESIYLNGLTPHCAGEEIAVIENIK
The assay is described as follows: TREK-1 Manual Patch Clamp (hMPC) assay. It is filed as cell-based. As to conditions: CHO-K1 cells stably expressing human TREK-1; whole-cell current at 0 mV. The protocol:
The term “patch clamp technique” herein refers to the “gold standard” technique for evaluating TREK channel pharmacology. The detail method is described below.
CHO-K1 cells stably expressing human TREK-1 or HEK293 cells stably expressing human TREK-2 are plated on glass coverslips, and voltage clamped in the whole-cell configuration of the patch clamp technique. Cells were voltage clamped at a holding potential of −80 mV and the stepped to 0 mV for 500 msec. The voltage was subsequently ramped from −120 mV to +80 mV over a 500 msec duration. This step-ramp protocol was repeated every 10 sec. The bathing solution contained the following: 135 mM NaCl, 5 mM KCl, 2 mM CaCl2, 1 mM MgCl2, 5 mM D-Glucose, 10 mM HEPES, 10 mM sucrose (adjusted to pH 7.4 with NaOH, 300 mosmol/kg H2O). The pipette solution contained the following: 135 mM KCl, 2 mM MgCl2, 1 mM EGTA, 10 mM HEPES, 2 mM Na2ATP (adjusted to pH 7.35 with KOH, 285 mosmol/kg H2O). Test compounds were dissolved into the bathing solution. Experiments on TREK-2 were terminated with the addition of the control compound (tert-butyl (3-((4-(benzyloxy)-2-methylphenyl)carbamoyl)-4-chlorophenyl)carbamate) so that maximal inhibition could be determined. The effects of test compound on the currents were calculated at 0 mV using the following equations:
For CHO cells expressing TREK-1 channel: % inhibition=(1-post current/pre current)×100
The compounds shown in Table 2 were prepared in an analogous manner with the appropriate starting materials, and evaluated in our TREK-1 Manual Patch Clamp (hMPC) assay.

Assay [2] addresses T1, human TREK-1. Briefly: TREK-1 Thallium flux assay, Method 2. Type of assay: cell-based. Conditions: measured by Method 2 of TREK1 Thalium flux assay (footnote *12); read-out: Tl+ Assay IC50. The procedure:
CHO-K1 cells stably expressing human TREK-1 were plated in 384-well plates on the day of assay, loaded with Thallos dye. Test compounds or control compound (tert-butyl (3-((4-(benzyloxy)-2-methylphenyl)carbamoyl)-4-chlorophenyl)carbamate) or 0.3% DMSO (vehicle control) were added directly to the cell plates and incubated for 10 min, and then treated with thallium stimulus buffer to initiate thallium flux. To measure the efficacy and potency of test compounds, the change in fluorescence intensity (ΔRatio) and % inhibition were calculated using the following equations:
ΔRatio=(fluorescence intensity at 25 seconds after thallium addition)/(average of fluorescent intensity before thallium addition)

For `Cc1cc(C#Cc2ccccc2)cnc1NC(=O)c1c(Cl)cnn1[C@H]1CCN(C(=O)C2CC2)C1` [Compound 454, 4-chloro-1-[(3S)-1-(cyclopropanecarbonyl)pyrrolidin-3-yl]-N-[3-methyl-5-(phenylethynyl)pyridin-2-yl]-1H-pyrazole-5-carboxamide], the IC50 in assay [1] worked out at 100 nM; in assay [2] it was 130 nM.
With `Cc1cc(C#Cc2ccccc2)cnc1NC(=O)c1c(Cl)cnn1[C@H]1CCn2nccc2C1` (single isomer, unassigned) [Compound 457, 4-chloro-N-[3-methyl-5-(phenylethynyl)pyridin-2-yl]-1-[(5S)-4,5,6,7-tetrahydropyrazolo[1,5-a]pyridin-5-yl]-1H-pyrazole-5-carboxamide or 4-chloro-N-[3-methyl-5-(phenylethynyl)pyridin-2-yl]-1-[(5R)-4,5,6,7-tetrahydropyrazolo[1,5-a]pyridin-5-yl]-1H-pyrazole-5-carboxamide], the IC50 in assay [2] is 37 nM.
